Source: patent publication US8232289B2, “Spiropiperidine compounds as ORL-1 receptor antagonists” (Eli Lilly and Company, priority 2009, dated 2012)
Marks after values point to notes of the source that are not given here.

Tests used:
[1] = Rat hepatic microsomal glutathione trapping assay; format: in vitro ADME; conditions: hepatic microsomal homogenate, glutathione as nucleophile
Source text: Assuming that reactive metabolites may play a role in clinical IDRs, minimizing the potential for oxidative bioactivation has been proposed as a means of improving the overall safety profile of compounds containing structural features associated with such reactivity. (see Baillie, Thomas A., Approaches to the Assessment of Stable and Chemically Reactive Drug Metabolites in Early Clinical Trials, Chemical Research in Toxicology, vol 22(2) 2009.) To this end, representative compounds of the present invention and related compounds are screened using a rat hepatic microsomal trapping assay, using glutathione as an endogenous nucleophile, to understand the potential for oxidative bioactivation of the thienyl moiety. […] Of the compounds tested, those wherein R^2a and R^2b are fluoro are found to not show glutathione conjugate formation.

Male Sprague-Dawley rats = test: Rat dural plasma protein extravasation (PPE) model, oral dosing; format: in vivo; conditions: 1.0 mg/kg po
Method: All test compounds are prepared in a vehicle solution containing 20% Captisol in 25 mM phosphate buffer (pH 2.0). The positive control compound, sumatriptan, is dissolved in saline. Male Sprague-Dawley rats from Harlan Laboratories (250 to 350 g), that have been fasted overnight, are dosed with test compound, sumatriptan or vehicle by oral gavage (2 mL/kg). Fifty min. post-dose the rats are anesthetized with Nembutal (60 mg/kg, ip) and placed in a stereotaxic frame with the incisor bar set at −2.5 mm. Following a mid-line sagittal scalp incision, 2 pairs of bilateral holes were drilled through the skull (3.2 mm posteriorly, 1.8 and 3.8 mm laterally, all coordinates referenced to bregma). Pairs of stainless steel stimulating electrodes (Rhodes Medical Systems Inc), insulated except at the tips, are lowered through the holes in both hemispheres to a depth of 9.2 mm below the dura.
A solution of fluoroscein isothiocyanate (FITC) dye-labeled bovine serum albumin (BSA) (FITC-BSA) (20 mg/kg, iv), is injected into the femoral vein 2 minutes prior to electrical stimulation of the trigeminal ganglion to function as the marker for protein extravasation. Sixty minutes following dosing with test compound or vehicle, the left trigeminal ganglion is electrically stimulated for 5 minutes at a current intensity of 1.0 mA (5 Hz, 5 minutes duration).
Five minutes following stimulation, the rats are killed by exsanguination with 40 mL of saline which also rinses residual FITC/BSA out of the blood vessels. The top of the skull is removed to collect the dural membranes. The membrane samples are removed from both hemispheres, rinsed with water, and spread flat on microscope slides. The slides are dried for 15 minutes on a slide warmer and cover-slipped with a 70% glycerol/water solution.
A fluorescence microscope equipped with a grating monochromator and a spectrophotometer is used to quantify the amount of FITC-BSA dye in each dural sample. The microscope is equipped with a motorized stage interfaced with a personal computer. This facilitates the computer-controlled movement of the stage, with fluorescence measurements at 25 points (500 μm steps) on each dural sample. The extravasation induced by electrical stimulation of the trigeminal ganglion is an ipsilateral effect (that is occurs only on the side of the dura in which the trigeminal ganglion is stimulated). This allows the other (unstimulated) half of the dura to be used as a control. The extravasation ratio (that is the ratio of the amount of extravasation in the dura from the stimulated side compared to the unstimulated side) is calculated. Animals dosed with vehicle alone or an ineffective dose of the test compound have an extravasation ratio of approximately 2, while totally effective treatments result in a ratio of approximately 1.
Results are expressed as mean values with standard errors of the mean (±SEM). All statistical evaluations are conducting utilizing ANOVA followed by comparison to the control group by Dunnett's Method. Statistical significance is assumed when p<0.05. Statistical analyses are performed using JMP statistical analysis software (SAS Research Institute, version 6.0.2).

male NIH-Swiss mice = test: Forced-swim test in mice (mFST); format: in vivo
Source text: (§1) mFST is an established in vivo assay for antidepressant activity (Li et al. J Pharmacol Exp Ther. 319(1):254-9, 2006.). […] The mFST was used to evaluate potential antidepressant-like activity of novel nociceptin/ORL1 antagonists according to previously published methods (Li et al. J Pharmacol Exp Ther. 319(1):254-9, 2006.). Briefly, male NIH-Swiss mice (Harlan Sprague-Dawley, Indianapolis, Ind.) weighing between 25-30 g are used. Group housed animals are removed from the vivarium to the testing area in their own cages and allowed to adapt to the new environment for at least 1 hour before testing. Alternatively, male 129S6 wild type and nociceptin/ORL1 receptor knockout mice were used to confirm dependence of the response to compound was nociceptin/ORL1 receptor dependent. All compounds are prepared in 20% Captisol, 25 mM phosphate buffer, pH 2.0 on the day of use. Mice are placed in a cylinder (diameter: 10 cm; height: 25 cm) filled with 6 cm of water (22-25° C.) for 6 min. The duration of immobility during the last 4 min. of the 6 min. period of the test was scored. A mouse is recorded as immobile when floating motionless or making only those movements necessary to keep its head above water.

[2] = tested on: wild type and ORL knockout mice; test: Blockade of fasting-induced hyperphagia in mice; format: in vivo
Source text: Blockade of fasting-induced hyperphagia in rodents is an accepted model for hyperphagic eating disorders. […] Mice are individually housed a minimum of 3 days prior to the onset of testing to eliminate any effects of stress due to the change from group to individual housing. Three mice/genotype are randomly assigned to each treatment group on the test day. Pre-fast body weight measurements are taken, and food is then removed from cages overnight. Mice are fasted for approximately 15 hr. The next morning, the mice are given one of three doses of drug or vehicle via oral gavage 30 min. prior to gaining access to food. Drugs are dissolved in 20% Captisol dissolved in 25 mM phosphate buffer, pH 2.0. Measurements of body weight are taken immediately prior to drug treatment or 24 hr. after access to food is restored. […] Measurements of food intake are recorded 1 hr following access to food, as indicated, by weight of food remaining at 1 hr. It should be noted that food intake measured is during the light phase, a time during which mice are typically at rest and not normally eating. Following initial testing, mice are rested for 1 week with access to unlimited chow.

[3] = tested on: 129S6 wild type and nociceptin/ORL1 receptor knockout mice; test: mFST in wild type and ORL-1 knockout mice; format: in vivo
Source text: as §1
Yet further, these effects of reduced immobilization times are not observed when ORL-1 knockout mice, a strain of mice engineered to lack the ORL-1 receptor, are used, showing that the effect is indeed mediated by the ORL-1 receptor.

[4] = target: T1, cloned human ORL1/nociceptin receptors (Homo sapiens, UniProt P41146); test: Functional blockade of agonist-mediated G-protein activation, GTP-γ-[35S] binding; format: biochemical; conditions: stimulation with 300 nM nociceptin/OFQ; read-out: Kb for the ORL-1 receptor (antagonist affinity)
T1 construct: expressed in transfected cells
Source text: Agonist-mediated stimulation of G-protein coupled receptors results in the activation of membrane associated Gαβγ-protein heterotrimer complexes, and represents the first step in the transduction of extracellular signals to modification of intracellular pathways. The first step in activation of receptor-mediated activation of Gαβγ-proteins heterotrimer is the exchange of Gα subunit bound guanosine diphoshpate (GDP) for guanosine triphosphate (GTP). The binding of GTP to the Gα subunit causes dissociation of the heterotrimer subunits, Gβ and Gγ, resulting in the modulation of several intracellular signaling cascades. Measurement of receptor-mediated G-protein activation can be measured using the non-hydrolyzable radiolabeled analog of GTP, GTP-γ-[35S]. Utilizing this methodology, antagonist affinity (Kb) is measured in membranes expressing cloned human ORL1/nociceptin receptors using a GTP-γ-[35S] binding assay according to previously described protocols with minor modifications (DeLapp et al., J Pharmacol Exp Ther. 1999 May; 289(2):946-55; Ozaki et al., Eur J Pharmacol. 2000 Aug. 18; 402(1-2):45-53). Assays are conducted in a 200-μl volume with the following buffer composition: 100 mM NaCl, 20 mM HEPES, 5 mM MgCl2, 1 mM EDTA, 0.1% BSA, 3 μM GDP, 0.5 nM [^35S]GTPγS. ORL1 receptor membrane suspension is added at a concentration of 20 μg protein per well and receptor stimulation is achieved using 300 nM nociceptin/OFQ. Wheat germ agglutinin coated SPA beads (Amersham, Arlington Hts., IL) are added at 1 mg per well to detect membrane-bound [^35S]GTPγS. Plates are sealed and incubated for 2 hr. at room temperature. Plates are then placed at 4° C. overnight to allow the SPA beads to settle and then counted in a Wallac Microbeta. Specific [^35S]GTPγS binding is determined as the difference in CPM observed in the absence and presence of 10 μM unlabeled GTPγS. Data are plotted as the percent of specific [^35S]GTPγS bound. Curves are plotted as the percent of specific binding and IC50 values are determined using a sigmoidal dose response curve with variable slope. […]

T1 sequence (P41146 whole entry): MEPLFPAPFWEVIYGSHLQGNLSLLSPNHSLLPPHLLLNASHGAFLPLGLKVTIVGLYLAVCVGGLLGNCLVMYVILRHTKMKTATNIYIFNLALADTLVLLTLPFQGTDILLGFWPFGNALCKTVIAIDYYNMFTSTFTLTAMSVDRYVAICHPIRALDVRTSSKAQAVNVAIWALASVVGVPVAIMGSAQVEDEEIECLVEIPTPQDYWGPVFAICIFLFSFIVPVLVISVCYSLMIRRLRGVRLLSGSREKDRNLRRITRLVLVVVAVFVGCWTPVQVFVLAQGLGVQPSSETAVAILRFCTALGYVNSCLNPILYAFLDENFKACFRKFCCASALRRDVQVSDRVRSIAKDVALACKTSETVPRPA

**Q.** For `Cc1nn(-c2c(F)cccc2C(N)=O)cc1CN1CCC2(CC1)OCCc1c2sc(F)c1F.O=C(O)C(O)C(O)C(=O)O` [3-fluoro-2-[4-[(2,3-difluorospiro[4,5-dihydrothieno[2,3-c]pyran-7,4′-piperidine]-1′-yl)methyl]-3-methyl-pyrazol-1-yl]benzamide (L) Tartrate, reference compound], which Glutathione conjugate formation [1] is on record?
**A.** Yes

**Q.** Which Glutathione conjugate formation [1] does the source give for `COCc1cccnc1-n1cc(CN2CCC3(CC2)OCCc2cc(Cl)sc23)c(C)n1.O=C(O)C(O)C(O)C(=O)O` [Example 14, 2-Chloro-1′-[[1-[3-(methoxymethyl)-2-pyridyl]-3-methyl-pyrazol-4-yl]methyl]spiro[4,5-dihydrothieno[2,3-c]pyran-7,4′-piperidine] (L)-Tartrate] here?
**A.** Yes

**Q.** Which “Extravasation Ratio (mean)” value (Male Sprague-Dawley rats) does the source give for `CNS(=O)(=O)Cc1ccc2[nH]cc(CCN(C)C)c2c1` [Sumatriptan, reference compound] here?
**A.** 1.06*

**Q.** For `CNCCC(Oc1ccc(C(F)(F)F)cc1)c1ccccc1` (stereo not drawn) [fluoxetine, reference compound], which “Immobilization Time” value (male NIH-Swiss mice; 10 mg/Kg, alone) is on record?
**A.** 168 s

**Q.** For `Clc1cccc(N2CCNCC2)c1` [mCPP, meta-chlorophenylpiperazine, reference compound], which “effect on fasting-induced hyperphagia” value ([2]; ORL-1 knockout mouse strain) is on record?
**A.** significantly reduce fasting induced hyperphagia equally in both wild type mice and the ORL-1 knockout mouse strain

**Q.** What about the “effect on fasting-induced hyperphagia” value ([2]; wild type mice, oral gavage 30 min. prior to food, food intake at 1 hr) of the same molecule?
**A.** significantly reduce fasting induced hyperphagia equally in both wild type mice and the ORL-1 knockout mouse strain

**Q.** What does the source list for `CN(C)CCCN1c2ccccc2CCc2ccccc21` [Imiprimine, reference compound]?
**A.** Immobilization Time (male NIH-Swiss mice; 15 mg/kg, positive control): 96* sec; effect on immobilization time ([3]; ORL-1 knockout mice): reduce immobilization times in both the wild type and knockout mice to an equivalent degree; effect on immobilization time ([3]; wild type mice): reduce immobilization times in both the wild type and knockout mice to an equivalent degree

**Q.** With `Cc1nn(-c2c(F)cccc2C(N)=O)cc1CN1CCC2(CC1)OCCc1cc(F)sc12.O=C(O)C(O)C(O)C(=O)O` [3-fluoro-2-[4-[(2-fluorospiro[4,5-dihydrothieno[2,3-c]pyran-7,4′-piperidine]-1′-yl)methyl]-3-methyl-pyrazol-1-yl]benzamide (L) Tartrate, reference compound] as the molecule, how does the Glutathione conjugate formation [1] read?
**A.** Yes

**Q.** With `Cc1nn(-c2ncccc2CO)cc1CN1CCC2(CC1)OCC(F)(F)c1cc(Cl)sc12` [Example 1, [2-[4-[(2-Chloro-4,4-difluoro-spiro[5H-thieno[2,3-c]pyran-7,4′-piperidine]-1′-yl)methyl]-3-methyl-pyrazol-1-yl]-3-pyridyl]methanol (L)-tartrate] as the molecule, how does the Kb [4] read?
**A.** 0.2 nM

**Q.** With `COCc1cccnc1-n1cc(CN2CCC3(CC2)OCC(F)(F)c2cc(F)sc23)c(C)n1.O=C(O)C(O)C(O)C(=O)O` [Example 10, 2,4,4-Trifluoro-1′-[[1-[3-(methoxymethyl)-2-pyridyl]-3-methyl-pyrazol-4-yl]methyl]spiro[5H-thieno[2,3-c]pyran-7,4′-piperidine] (L)-Tartrate] as the molecule, how does the Glutathione conjugate formation [1] read?
**A.** No
